Laboratory results as given in the supplement of paper PMC7840683.
± gives the standard deviation of the averaged measurements.

Test system: HepaRG
Assay: LDH release cytotoxicity, % of total lysis control; higher = more cytotoxic
Conditions: 48 h
Procedure, shortened: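 On collagen I-coated 96-well plates, single-lot HepaRG cells were exposed for 48 h, in duplicate, to eight-point half-log series of test chemicals beginning at 100 µM. The exposure medium was serum-free induction medium with 0.5% DMSO, and total lysis wells got 0.1% Triton X. Resorufin fluorescence from the CytoTox-ONE reaction, read on a Tecan Safire, reported LDH in 50 µL of spent medium. Percent cytotoxicity came from normalization to on-plate vehicle and total lysis controls, averaged over the duplicates.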

| SMILES | LDH release cytotoxicity (0.03162 µM) | LDH release cytotoxicity (0.1 µM) | LDH release cytotoxicity (0.3162278 µM) | LDH release cytotoxicity (1 µM) | LDH release cytotoxicity (3.16228 µM) | LDH release cytotoxicity (10 µM) | LDH release cytotoxicity (31.6228 µM) | LDH release cytotoxicity (100 µM) | LDH release cytotoxicity (0.031623 µM) | LDH release cytotoxicity (0.316228 µM) |
| --- | --- | --- | --- | --- | --- | --- | --- | --- | --- | --- |
| O=C(O)COc1ccc(Cl)cc1Cl [2,4-Dichlorophenoxyacetic acid] | -2.81 ± 0.75% | -3.06 ± 0.11% | -3.35 ± 0.81% | -3.21 ± 0.55% | -3.24 ± 0.42% | -3.79 ± 0.69% | 48.3 ± 0.8% | 69.9 ± 2% |  |  |
| O=C(O)CCCOc1ccc(Cl)cc1Cl [2,4-Dichlorophenoxybutyric acid] | -2.25 ± 0.88% | -0.951 ± 0.37% | -1.77 ± 0.11% | -1.33 ± 0.28% | -1.43 ± 0.78% | -0.351 ± 0.14% | -1.14 ± 0.056% | 0.81 ± 0.16% |  |  |
| Cc1ccc(O)c(C)c1 [2,4-Dimethylphenol] | -0.236 ± 0.8% | -1.06 ± 0.065% | -0.554 ± 0.3% | -0.084 ± 0.78% | 0.0582 ± 0.56% | -0.172 ± 0.66% | -0.59 ± 0.59% | -0.251 ± 0.47% |  |  |
| O=[N+]([O-])c1ccc(O)c([N+](=O)[O-])c1 [2,4-Dinitrophenol] | -0.273 ± 0.077% | -1.23 ± 0.39% | -0.515 ± 0.069% | -1 ± 0.71% | -0.876 ± 0.33% | 0.105 ± 0.71% | 0.264 ± 0.47% | 0.252 ± 0.21% |  |  |
| CC(C)(C)c1cc(O)c(C(C)(C)C)cc1O [2,5-Di-tert-butylbenzene-1,4-diol] | -1.42 ± 0.46% | -1.56 ± 0.33% | -1.72 ± 1.2% | -1.69 ± 0.27% | -1.49 ± 0.41% | -1.94 ± 0.31% | -1.04 ± 0.88% | -1.46 ± 0.39% |  |  |
| CC(C)(C)OOC(C)(C)CCC(C)(C)OOC(C)(C)C [2,5-Dimethyl-2,5-di-(tert-butylperoxy)hexane] | -1.07 ± 0.59% | -0.939 ± 1% | -0.841 ± 0.2% | -0.347 ± 0.56% | -0.34 ± 0.39% | -0.223 ± 0.53% | 1.22 ± 1.1% | 2.2 ± 1.6% |  |  |
| Cc1ccc(C)c(O)c1 [2,5-Dimethylphenol] | -1.02 ± 1% | -1.37 ± 0.38% | -1.74 ± 0.34% | -1.34 ± 0.19% | -1.4 ± 0.44% | -0.854 ± 0.043% | -0.822 ± 0.1% | 0.0909 ± 0.18% |  |  |
| CN(C)CCCN(C)CCCN(C)C [2,6,10-Trimethyl-2,6,10-triazaundecane] | -1.25 ± 0.61% | -1.63 ± 0.4% | -2.17 ± 0.18% | -1.73 ± 0.24% | -1.82 ± 0.067% | -1.78 ± 0.98% | -0.82 ± 0.7% | -0.216 ± 0.84% |  |  |
| CC(C)(C)c1cccc(C(C)(C)C)c1O [2,6-Di-tert-butylphenol] | -1.46 ± 0.98% | -2.07 ± 0.79% | -1.81 ± 0.93% | -2.85 ± 0.3% | -2.37 ± 0.99% | -2.01 ± 0.62% | -2.37 ± 1.6% | -2.35 ± 1.9% |  |  |
| CCc1cccc(CC)c1N [2,6-Diethylaniline] | -1.27 ± 1.1% | -2.24 ± 0.81% | -1.42 ± 0.19% | -0.395 ± 0.46% | -0.592 ± 0.21% | -1.25 ± 1.1% | -0.819 ± 0.47% | -0.482 ± 0.8% |  |  |
| Cc1cccc(C)c1N [2,6-Dimethylaniline] | -1.3 ± 1.2% | -0.274 ± 0.54% | -0.695 ± 1.3% | -2 ± 0.2% | -1.29 ± 0.67% | -1.03 ± 0.33% | -0.842 ± 0.55% | 3.28 ± 2.6% |  |  |
| Cc1cccc(C)c1O [2,6-Dimethylphenol] | -1.24 ± 1.2% | -0.897 ± 0.56% | -1.931 ± 0.0097% | -1.91 ± 0.97% | -1.66 ± 0.091% | -1.73 ± 0.19% | -0.524 ± 1.1% | 0.122 ± 0.94% |  |  |
| CC(C)c1cccc(C(C)C)c1N1C(=O)c2ccc(O)cc2C1=O [2-(2,6-Diisopropylphenyl)-5-hydroxy-1H-isoindole-1,3-dione] | 0.356 ± 0.042% | 0.0666 ± 0.077% | -0.376 ± 0.57% | -0.99 ± 0.87% | -0.278 ± 0.47% | -0.287 ± 0.3% | -0.0632 ± 1% | 0.492 ± 1.2% |  |  |
| CCCCOCCOCCO [2-(2-Butoxyethoxy)ethanol] | -0.987 ± 0.27% | -1.94 ± 0.23% | -1.79 ± 0.24% | -2.09 ± 0.25% | -2.29 ± 0.05% | -1.67 ± 0.18% | -1.25 ± 0.3% | -0.813 ± 0.4% |  |  |
| CCOCCOCCO [2-(2-Ethoxyethoxy)ethanol] | 0.116 ± 0.16% | -1.88 ± 0.064% | -1.03 ± 0.55% | -1.82 ± 0.14% | -1.06 ± 0.26% | -0.761 ± 0.11% | -0.843 ± 0.34% | -0.504 ± 0.29% |  |  |
| CCC(C)c1ccccc1O (configuration not stated) [2-(Butan-2-yl)phenol] |  | -1.12 ± 0.63% |  | -2.96 ± 1.4% | -3.27 ± 0.89% | -1.71 ± 1% | -1.22 ± 1.5% | 0.802 ± 0.9% | -0.239 ± 0.71% | -2.25 ± 1.2% |
| O=[N+]([O-])C(CO)(CO)CO [2-(Hydroxymethyl)-2-nitro-1,3-propanediol] | 0.0153 ± 0.39% | -1.5 ± 0.4% | -1.73 ± 0.99% | -0.843 ± 0.29% | -0.932 ± 1.1% | -1.24 ± 1.2% | -0.797 ± 0.24% | 0.918 ± 1.3% |  |  |
| CCCCCCC(C=O)=Cc1ccccc1 [2-(Phenylmethylene)octanal] | -1.15 ± 0.14% | -2.83 ± 0.43% | -1.02 ± 0.77% | -1.91 ± 0.42% | -1.53 ± 0.26% | -0.899 ± 0.63% | -0.688 ± 1.8% | -0.668 ± 0.88% |  |  |
| N#CSCSc1nc2ccccc2s1 [2-(Thiocyanomethylthio)benzothiazole] | -0.587 ± 0.32% | -0.847 ± 0.58% | -0.155 ± 0.13% | -0.646 ± 0.61% | 0.021 ± 0.2% | -0.312 ± 0.2% | -0.754 ± 0.77% | 1.03 ± 0.038% |  |  |
